This is an account of results in patent publication US5206238A, “Cholecystokinin antagonists” (Merck & Co., Inc., priority 1992, dated 1993).

The test system of series [1] is DBA2 mice. Kind of series: black/white exploration test (animal model of anxiety). The class given is in vivo. The note with it: for active dose range: anxiolytic properties in mice. From the text: The black/white exploration test [Crawley et al. Pharmacology, Biochemistry and Behav. 13, 167 (1980)] is a simple animal model of anxiety. Rodents placed in a two compartment box which consists of a brightly lit, white painted side and a dimly lit, black painted side, display a marked preference for the black side of the apparatus. This behavior is caused by the aversive properties of the brightly lit, white painted section. Classical anxiolytic drugs [such as diazepam, see Crawley, supra] and novel anxiolytic drugs [such as 5HT3 antagonists, see Jones et al. Br. J. Pharm.
A. Naive male DBA2 mice (25-30) were housed on a reversed light/dark cycle and tested during the dark phase of the cycle under dim red light. The apparatus consisted of an open topped box (40 cm long×27 cm wide×27 cm high) divided into a small area (2/5) and a large area (3/5) by a partition that extended 20 cm above the walls. There was a 7.5×7.5 cm opening in the partition at floor level. The small compartment was painted black and the large compartment white. The floor of each compartment was marked into 9 cm squares. The white compartment was illuminated by a 100 W tungsten bulb 17 cm above the box and the black compartment by a similarly placed 60 W red bulb.
Animals that had been injected with drug or vehicle were placed individually into the center of the white area and their behavior observed during a 5 minute period by remote video recording. Four behavioral parameters were recorded every minute: the number of exploratory rears in the white and black sections, the number of line crossings in the black and white sections, the number of transitions between the two sections and the time spent in the black and white sections. Animals were tested in treatment groups of 8-10 and vehicle controls were run on each test day. Data were analysed by ANOVA and Dunnetts test.

The test system of series [2] is Sprague Dawley rats. Kind of series: exploratory/locomotor activity in automated activity cages. The series is classed as in vivo, rat. As for the experimental part:
B. The effects of CCK-8 and compound A on the exploratory behavior of the rat were examined in automated activity cages and by direct observation. […] [See Crawley, Pharm. Biochem & Behav. 20, 23-27 (1984).]
Male Sprague Dawley rats were injected ([…].) with CCK-8 and immediately placed in automated activity cages. Activity was measured for 30 minutes past injection.
Male SD rats were injected (s.c.) with the CCK antagonist compound A (0.0001-10 mg/kg) and immediately placed in the automated activity cages.

The next series deals with rats. Kind of series: direct observation of motoric behaviors in a novel environment (perspex cage). The class given is in vivo, rat. As to conditions: 0.1 mg/kg, 15 minute period 15 minutes after treatment. As for the experimental part: In order to assess further the effect of Compound A on exploration in a novel environment, the motoric hehaviors of rats placed in a perspex cage was recorded by direct observation for a 15 minute period 15 minutes after treatment with Compound A.
Experimenters (unaware of the treatments the animals had received) recorded the frequency and duration of rearing, sniffing, grooming and cage crossing using a keypad interfaced to a BBC microcomputer.

The test system of series [3] is Sprague Dawley rats. The note with it: cited from earlier work.
Series [4] concerns DBA2 mice. As to conditions: rodents, literature (Crawley); cited from earlier work.
A further series concerns humans. As to conditions: reported studies; cited from earlier work.

For the compound `CN1C(=O)[C@@H](NC(=O)c2cc3ccccc3[nH]2)N=C(c2ccccc2)c2ccccc21` [Compound A, 3(S)-(-)-1,3-dihydro-3-(2-indolecarbonylamino)-1-methyl-5-phenyl-2H-1,4-benzodiazepin-2-one], in the series with DBA2 mice [1] (0.5, 5.0 and 500 ug/kg, male DBA2 mice), the “preference for locomotion (line crossings) in the black side” value is reported as “abolished”. Further, the “difference in time spent in the black and white side” value in the series with DBA2 mice [1] (5.0 and 500 ug/kg, male DBA2 mice) is listed as “abolished”. In the series on DBA2 mice [1], this compound registered an active dose range of 0.05 to 5.0 µg/kg. In addition, the “preference for rearing in the black side” value in the series on DBA2 mice [1] (doses of 0.05, 0.5, 5.0 and 500 ug/kg, male DBA2 mice) is on record as “significantly decreased”. For the same compound, the “habituation and period of exploratory activity” value in the series with Sprague Dawley rats [2] (0.0001-10 mg/kg s.c.) is “delayed habituation and prolonged the period of exploratory activity”. For the same compound, the “levels of activity at 25 minutes” value in the series on Sprague Dawley rats [2] (0.1 mg/kg s.c., 25 minutes) is given as “significantly above controls”. Moreover, the “effect on activity at 25 minutes” value with Sprague Dawley rats [2] (higher and lower doses than 0.1 mg/kg s.c. (bell-shaped dose response)) is “no significant effect”. In addition, in the series on rats, the cage crossing entry was “significantly increased”, the rearing result was “significantly increased” and the sniffing entry is “significantly increased”.

As for `Cc1cccc(NC(=O)N[C@@H]2N=C(c3ccccc3)c3ccccc3N(C)C2=O)c1` [Compound B, (R)-N-(2,3-dihydro-1-methyl-2-oxo-5-phenyl-1H-1,4-benzodiazepin-3-yl)-N'-(3-methylphenyl)urea], in the series on DBA2 mice [1], the active dose range fell in the range of 0.005 to 0.05 µg/kg. For the same compound, the “difference in time spent in the black and white side” value with DBA2 mice [1] (dose of 0.005 ug/kg, male DBA2 mice) was “decreased”. In the series on DBA2 mice [1] (dose of 0.05 ug/kg, male DBA2 mice), the “preference for rearing in the black side” value is on record as “abolished”.

Turning to `CNC1=Nc2ccc(Cl)cc2C(c2ccccc2)=[N+]([O-])C1` [chlordiazepoxide], the “spontaneous locomotor activity in a novel environment” value with Sprague Dawley rats [3] (literature (McElroy et al.)) was “increases spontaneous locomotor activity”.

Turning to `CN1C(=O)CN=C(c2ccccc2)c2cc(Cl)ccc21` [diazepam], the “preference of the animal for the black dimly lit side” value in the series on DBA2 mice [4] is “decrease the preference”.

With CCK-4, in the series with humans, the induction of panic result is “induce panic”.

Consider “CCK-8: carboxylterminal octapeptide of CCK-33, a naturally-occurring neuropeptide and the minimum fully active sequence”, for which the induction of panic result in the series with humans is “induced gastrointestinal effects but not panic symptoms”. In the series with Sprague Dawley rats [2] (0.5-16 μg/kg i.p., 30 minutes past injection, novel environment), the locomotor activity entry was “dose-dependently decreased”. Moreover, the “exploratory behavior in a novel environment” value with Sprague Dawley rats [3] (exogenous CCK-8, literature (Crawley)) is on record as “decreases exploratory behavior”.
